Assay results: paper doi:10.1101/2024.08.19.608619, “Discovery of potent SARS-CoV-2 nsp3 macrodomain inhibitors uncovers lack of translation to cellular antiviral response” (bioRxiv, 2024)
Where two headings read alike, the source gives them in different places.

How the values were obtained:
[1] = biological target: T1, SARS-CoV-2 nsp3-mac1 (Severe acute respiratory syndrome coronavirus 2, UniProt P0DTD1); assay: biochemical; parameters: SARS-CoV-2 nsp3 macrodomain TR-FRET single point, per cent inhibition, n=2
[2] = biological target: T1, SARS-CoV-2 nsp3-mac1; assay: biochemical; assay type: biochemical; details: SARS-CoV-2 nsp3 macrodomain TR-FRET single point
[3] = read-out: perc_inhibition_mean, batch_name=ASAP-0000350-001
[4] = read-out: perc_inhibition_mean, batch_name=ASAP-0000351-001
[5] = read-out: perc_inhibition_mean, batch_name=ASAP-0000352-001
[6] = read-out: perc_inhibition_mean, batch_name=ASAP-0000353-001
[7] = read-out: perc_inhibition_mean, batch_name=ASAP-0000354-001
[8] = read-out: perc_inhibition_mean, batch_name=ASAP-0000355-001
[9] = read-out: perc_inhibition_mean, batch_name=ASAP-0000356-001
[10] = read-out: perc_inhibition_mean, batch_name=ASAP-0000357-001
[11] = read-out: perc_inhibition_mean, batch_name=ASAP-0000358-001
[12] = read-out: perc_inhibition_mean, batch_name=ASAP-0000359-001
[13] = read-out: perc_inhibition_mean, batch_name=ASAP-0000360-001
[14] = read-out: perc_inhibition_mean, batch_name=ASAP-0000361-001
[15] = read-out: perc_inhibition_mean, batch_name=ASAP-0000363-001
[16] = read-out: perc_inhibition_mean, batch_name=ASAP-0000364-001
[17] = read-out: perc_inhibition_mean, batch_name=ASAP-0000365-001
[18] = read-out: perc_inhibition_mean, batch_name=ASAP-0000366-001
[19] = read-out: perc_inhibition_mean, batch_name=ASAP-0000380-001
[20] = read-out: perc_inhibition_mean, batch_name=ASAP-0000381-001
[21] = read-out: perc_inhibition_mean, batch_name=ASAP-0000382-001
[22] = read-out: perc_inhibition_mean, batch_name=ASAP-0000383-001
[23] = read-out: perc_inhibition_mean, batch_name=ASAP-0000384-001
[24] = read-out: perc_inhibition_mean, batch_name=ASAP-0000385-001
[25] = read-out: perc_inhibition_mean, batch_name=ASAP-0000386-001
[26] = read-out: perc_inhibition_mean, batch_name=ASAP-0000387-001
[27] = read-out: perc_inhibition_mean, batch_name=ASAP-0000388-001

## O=C(N[C@H]1CCC[C@H]1C(=O)O)c1cnn2ccc(C3CCN(C(=O)c4ccccc4)CC3)cc12 [ASAP-0000350]
[1]; [3]
  inhibition at 49.75 µM: 59.6%
  inhibition at 99.5 µM: 73.5%
[2]; concentration 49.75 uM, n=2
  perc_inhibition_mean: 59.585%
[2]; concentration 99.5 uM, n=2
  perc_inhibition_mean: 73.53%

## Cc1cnc(C(=O)N(CCC(=O)N2CCNCC2)Cc2cccc(Cl)c2)nc1 [ASAP-0000351]
[1]; [4]
  inhibition at 49.75 µM: -1.49%
  inhibition at 99.5 µM: 6.47%
[2]; concentration 49.75 uM, n=2
  perc_inhibition_mean: -1.487%
[2]; concentration 99.5 uM, n=2
  perc_inhibition_mean: 6.47%

## O=C(NCCn1cncn1)c1cnn2ccc(C3CCN(C(=O)c4ccccc4)CC3)cc12 [ASAP-0000352]
[1]; [5]
  inhibition at 49.75 µM: -3.7%
  inhibition at 99.5 µM: -2.57%
[2]; concentration 49.75 uM
  perc_inhibition_mean: -3.7%
[2]; concentration 99.5 uM, n=2
  perc_inhibition_mean: -2.566%

## O=C(NC[C@@H]1CCCCN1)c1cnn2ccc(C3CCN(C(=O)c4ccccc4)CC3)cc12 [ASAP-0000353]
[1]; [6]
  inhibition at 49.75 µM: -5.92%
  inhibition at 99.5 µM: -2.57%
[2]; concentration 49.75 uM
  perc_inhibition_mean: -5.92%
[2]; concentration 99.5 uM
  perc_inhibition_mean: -2.573%

## Cc1ccc(NC(=O)c2cnn3ccc(C4CCN(C(=O)c5ccccc5)CC4)cc23)cc1C(=O)O [ASAP-0000354]
[1]; [7]
  inhibition at 49.75 µM: -1.05%
  inhibition at 99.5 µM: -0.624%
[2]; concentration 49.75 uM
  perc_inhibition_mean: -1.047%
[2]; concentration 99.5 uM
  perc_inhibition_mean: -0.624%

## O=C(NCc1ncccn1)c1cnn2ccc(C3CCN(C(=O)c4ccccc4)CC3)cc12 [ASAP-0000355]
[1]; [8]
  inhibition at 49.75 µM: -0.074%
  inhibition at 99.5 µM: -6.66%
[2]; concentration 49.75 uM
  perc_inhibition_mean: -0.074%
[2]; concentration 99.5 uM
  perc_inhibition_mean: -6.657%

## NC1(C(=O)N(CCC(=O)N2CCNCC2)Cc2cccc(Cl)c2)CC(F)(F)C1 [ASAP-0000356]
[1]; [9]
  inhibition at 49.75 µM: -3.48%
  inhibition at 99.5 µM: -1.17%
[2]; concentration 49.75 uM
  perc_inhibition_mean: -3.48%
[2]; concentration 99.5 uM
  perc_inhibition_mean: -1.174%

## O=C1CCC[C@@H](C(=O)N(CCC(=O)N2CCNCC2)Cc2cccc(Cl)c2)N1 [ASAP-0000357]
[1]; [10]
  inhibition at 49.75 µM: 2.42%
  inhibition at 99.5 µM: -3.31%
[2]; concentration 49.75 uM
  perc_inhibition_mean: 2.418%
[2]; concentration 99.5 uM
  perc_inhibition_mean: -3.31%

## Cc1ccc(C(=O)N2CCC(c3ccn4ncc(C(=O)N5CCCCC5)c4c3)CC2)c(=O)[nH]1 [ASAP-0000358]
[1]; [11]
  inhibition at 49.75 µM: 3.31%
  inhibition at 99.5 µM: 3.66%
[2]; concentration 49.75 uM
  perc_inhibition_mean: 3.307%
[2]; concentration 99.5 uM
  perc_inhibition_mean: 3.662%

## O=C(Cc1ccns1)Nc1ncnc2[nH]cnc12 [ASAP-0000359]
[1]; [12]
  inhibition at 49.75 µM: -9.5%
  inhibition at 99.5 µM: -3.24%
[2]; concentration 49.75 uM
  perc_inhibition_mean: -9.501%
[2]; concentration 99.5 uM
  perc_inhibition_mean: -3.24%

## O=C(O)c1ccsc1C(=O)N1CCC(c2ccn3ncc(C(=O)N4CCCCC4)c3c2)CC1 [ASAP-0000360]
[1]; [13]
  inhibition at 49.75 µM: 45%
  inhibition at 99.5 µM: 61.2%
[2]; concentration 49.75 uM
  perc_inhibition_mean: 45.022%
[2]; concentration 99.5 uM
  perc_inhibition_mean: 61.208%

## CCN(Cc1nnc(C)o1)C(=O)c1cnn2ccc(C3CCN(C(=O)c4ccccc4)CC3)cc12 [ASAP-0000361]
[1]; [14]
  inhibition at 49.75 µM: 10%
  inhibition at 99.5 µM: -5.31%
[2]; concentration 49.75 uM
  perc_inhibition_mean: 10.027%
[2]; concentration 99.5 uM
  perc_inhibition_mean: -5.306%

## Oc1ccccc1CNc1ncnc2cccnc12 [ASAP-0000363]
[1]; [15]
  inhibition at 49.75 µM: -1.84%
  inhibition at 99.5 µM: -0.535%
[2]; concentration 49.75 uM
  perc_inhibition_mean: -1.837%
[2]; concentration 99.5 uM
  perc_inhibition_mean: -0.535%

## O=C(c1ccnnc1O)N1CCC(c2ccn3ncc(C(=O)N4CCCCC4)c3c2)CC1 [ASAP-0000364]
[1]; [16]
  inhibition at 49.75 µM: -7.59%
  inhibition at 99.5 µM: 10.2%
[2]; concentration 49.75 uM
  perc_inhibition_mean: -7.591%
[2]; concentration 99.5 uM
  perc_inhibition_mean: 10.21%

## Cc1ccc2ccccc2c1-c1ncnc2[nH]ccc12 [ASAP-0000365]
[1]; [17]
  inhibition at 49.75 µM: -5.32%
  inhibition at 99.5 µM: -9.1%
[2]; concentration 49.75 uM
  perc_inhibition_mean: -5.321%
[2]; concentration 99.5 uM
  perc_inhibition_mean: -9.099%

## COc1cc(CC(=O)Nc2cc3c(=O)nc[nH]c3cn2)on1 [ASAP-0000366]
[1]; [18]
  inhibition at 49.75 µM: -4.69%
  inhibition at 99.5 µM: -3.48%
[2]; concentration 49.75 uM
  perc_inhibition_mean: -4.691%
[2]; concentration 99.5 uM
  perc_inhibition_mean: -3.481%

## Cn1cc([C@@H](Nc2ncnc3[nH]ccc23)c2ccccc2)cn1 [ASAP-0000380]
[1]; [19]
  inhibition at 49.75 µM: 20%
  inhibition at 99.5 µM: 39.3%
[2]; concentration 49.75 uM
  perc_inhibition_mean: 19.983%
[2]; concentration 99.5 uM
  perc_inhibition_mean: 39.262%

## Cc1nn(C)c(C)c1[C@H]1COCCN1c1ncnc2[nH]ccc12 [ASAP-0000381]
[1]; [20]
  inhibition at 49.75 µM: -0.137%
  inhibition at 99.5 µM: -0.128%
[2]; concentration 49.75 uM
  perc_inhibition_mean: -0.137%
[2]; concentration 99.5 uM
  perc_inhibition_mean: -0.128%

## O=C(c1cncc(O)n1)N1CCC(c2ccn3ncc(C(=O)N4CCCCC4)c3c2)CC1 [ASAP-0000382]
[1]; [21]
  inhibition at 49.75 µM: 26.6%
  inhibition at 99.5 µM: 41.9%
[2]; concentration 49.75 uM
  perc_inhibition_mean: 26.617%
[2]; concentration 99.5 uM
  perc_inhibition_mean: 41.906%

## O=C(c1c[nH]c(=O)cn1)N1CCC(c2ccn3ncc(C(=O)N4CCCCC4)c3c2)CC1 [ASAP-0000383]
[1]; [22]
  inhibition at 49.75 µM: -49%
  inhibition at 99.5 µM: 45.8%
[2]; concentration 49.75 uM
  perc_inhibition_mean: -49.044%
[2]; concentration 99.5 uM
  perc_inhibition_mean: 45.826%

## CC(C)[C@@H](Nc1ncnc2[nH]ccc12)c1nncn1C [ASAP-0000384]
[1]; [23]
  inhibition at 49.75 µM: 4.59%
  inhibition at 99.5 µM: 10.8%
[2]; concentration 49.75 uM
  perc_inhibition_mean: 4.589%
[2]; concentration 99.5 uM
  perc_inhibition_mean: 10.829%

## O=C(c1cnc2[nH]ncc2c1)N1CCC(c2ccn3ncc(C(=O)N4CCCCC4)c3c2)CC1 [ASAP-0000385]
[1]; [24]
  inhibition at 49.75 µM: 15.8%
  inhibition at 99.5 µM: 34.4%
[2]; concentration 49.75 uM
  perc_inhibition_mean: 15.807%
[2]; concentration 99.5 uM
  perc_inhibition_mean: 34.368%

## NC(=O)c1ncccc1C(=O)N1CCC(c2ccn3ncc(C(=O)N4CCCCC4)c3c2)CC1 [ASAP-0000386]
[1]; [25]
  inhibition at 49.75 µM: 20%
  inhibition at 99.5 µM: 36%
[2]; concentration 49.75 uM
  perc_inhibition_mean: 19.978%
[2]; concentration 99.5 uM
  perc_inhibition_mean: 36.045%

## Cc1cc(C(=O)N2CCC(c3ccn4ncc(C(=O)N5CCCCC5)c4c3)CC2)[nH]n1 [ASAP-0000387]
[1]; [26]
  inhibition at 49.75 µM: 16.6%
  inhibition at 99.5 µM: 31.6%
[2]; concentration 49.75 uM
  perc_inhibition_mean: 16.559%
[2]; concentration 99.5 uM
  perc_inhibition_mean: 31.572%

## Cc1cc(N)ncc1C(=O)N1CCC(c2ccn3ncc(C(=O)N4CCCCC4)c3c2)CC1 [ASAP-0000388]
[1]; [27]
  inhibition at 49.75 µM: 19.5%
  inhibition at 99.5 µM: 32.6%
[2]; concentration 49.75 uM
  perc_inhibition_mean: 19.535%
[2]; concentration 99.5 uM
  perc_inhibition_mean: 32.615%
